Measured values taken from patent US8372848B2, “Melanin-concentrating hormone receptor antagonists and methods of use” (Mixture Sciences, Inc., priority 2004, dated 2013).

Tests used:
[1] = target: T1, prolactin releasing peptide (PrRP) receptor (Homo sapiens, UniProt P49683); experiment: Selectivity versus PrRP receptor; assay type: cell-based
T1 sequence (P49683 1-370): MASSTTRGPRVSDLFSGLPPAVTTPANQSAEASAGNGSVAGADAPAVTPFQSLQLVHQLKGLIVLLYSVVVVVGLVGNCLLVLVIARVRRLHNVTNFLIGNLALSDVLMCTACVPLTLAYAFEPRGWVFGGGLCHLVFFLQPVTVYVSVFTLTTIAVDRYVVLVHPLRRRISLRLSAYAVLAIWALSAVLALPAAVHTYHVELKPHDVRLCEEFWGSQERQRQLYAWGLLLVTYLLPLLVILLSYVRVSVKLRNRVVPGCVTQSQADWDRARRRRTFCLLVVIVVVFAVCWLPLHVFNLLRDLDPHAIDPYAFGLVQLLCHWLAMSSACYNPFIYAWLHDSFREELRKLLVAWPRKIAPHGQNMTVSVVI

orexin 1R = target: T2, orexin 1R (Homo sapiens, UniProt O43613); experiment: Selectivity versus orexin 1R; assay type: cell-based
T2 sequence (O43613 1-425): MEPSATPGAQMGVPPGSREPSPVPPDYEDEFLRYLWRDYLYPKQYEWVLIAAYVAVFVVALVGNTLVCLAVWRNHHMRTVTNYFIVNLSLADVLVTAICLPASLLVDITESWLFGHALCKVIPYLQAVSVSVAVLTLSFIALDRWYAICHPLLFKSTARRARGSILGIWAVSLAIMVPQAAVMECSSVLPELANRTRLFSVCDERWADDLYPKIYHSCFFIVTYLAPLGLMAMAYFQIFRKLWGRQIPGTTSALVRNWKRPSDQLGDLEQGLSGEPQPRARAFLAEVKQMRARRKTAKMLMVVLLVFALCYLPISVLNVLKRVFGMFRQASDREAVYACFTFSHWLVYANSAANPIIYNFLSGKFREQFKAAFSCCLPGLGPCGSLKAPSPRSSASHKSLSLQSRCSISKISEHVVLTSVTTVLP

C[C@@H](CNCc1ccccc1)N1C[C@H](CCCNC(=N)N)N(CCc2cccc(F)c2)C1=S [TPI 1361-17, N-(3-{(4S)-1-[(1S)-2-(benzylamino)-1-methylethyl]-3-[2-(3-fluorophenyl)ethyl]-2-thioxoimidazolidin-4-yl}propyl)guanidine]
Selectivity for MCH1R compared with PrRP receptor [1]: more than 1,000 fold | Selectivity for MCH1R compared with orexin 1R (orexin 1R): more than 1,000 fold
